Measurements from PubChem BioAssay (NCI).
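Briefly, cells in 96-well plates were exposed to five compound concentrations for 48 h, and endpoints were estimated by linear interpolation. TGI: concentration producing complete growth inhibition.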

Experiments:
Experiment in all cases: inhibition of tumour cell growth, NCI panel, 48 h
786-0 renal = system: 786-0 renal
A498 renal = system: A498 renal
A549 NSCLC = system: A549 NSCLC
CAKI-1 renal = system: CAKI-1 renal
CCRF-CEM leukemia = system: CCRF-CEM leukemia
COLO 205 colon = system: COLO 205 colon
DLD-1 colon = system: DLD-1 colon
DMS 114 small cell lung = system: DMS 114 small cell lung
DMS 273 small cell lung = system: DMS 273 small cell lung
EKVX NSCLC = system: EKVX NSCLC
HCC-2998 colon = system: HCC-2998 colon
HCT-116 colon = system: HCT-116 colon
HCT-15 colon = system: HCT-15 colon
HL-60(TB) leukemia = system: HL-60(TB) leukemia
HOP-62 NSCLC = system: HOP-62 NSCLC
HT29 colon = system: HT29 colon
IGROV1 ovarian = system: IGROV1 ovarian
K-562 leukemia = system: K-562 leukemia
KM12 colon = system: KM12 colon
KM20L2 colon = system: KM20L2 colon
LOX IMVI melanoma = system: LOX IMVI melanoma
LXFL 529 NSCLC = system: LXFL 529 NSCLC
M14 melanoma = system: M14 melanoma
M19-MEL melanoma = system: M19-MEL melanoma
MALME-3M melanoma = system: MALME-3M melanoma
MOLT-4 leukemia = system: MOLT-4 leukemia
NCI-H23 lung = system: NCI-H23 lung
NCI-H522 lung = system: NCI-H522 lung
OVCAR-3 ovarian = system: OVCAR-3 ovarian
OVCAR-4 ovarian = system: OVCAR-4 ovarian
OVCAR-5 ovarian = system: OVCAR-5 ovarian
OVCAR-8 ovarian = system: OVCAR-8 ovarian
RPMI-8226 leukemia = system: RPMI-8226 leukemia
RXF-631 renal = system: RXF-631 renal
SF-268 CNS = system: SF-268 CNS
SF-295 CNS = system: SF-295 CNS
SF-539 CNS = system: SF-539 CNS
SK-MEL-2 melanoma = system: SK-MEL-2 melanoma
SK-MEL-28 melanoma = system: SK-MEL-28 melanoma
SK-MEL-5 melanoma = system: SK-MEL-5 melanoma
SK-OV-3 ovarian = system: SK-OV-3 ovarian
SN12C renal = system: SN12C renal
SNB-19 CNS = system: SNB-19 CNS
SNB-75 CNS = system: SNB-75 CNS
SNB-78 CNS = system: SNB-78 CNS
SW-620 colon = system: SW-620 colon
TK-10 renal = system: TK-10 renal
U251 CNS = system: U251 CNS
UACC-257 melanoma = system: UACC-257 melanoma
UACC-62 melanoma = system: UACC-62 melanoma
UO-31 renal = system: UO-31 renal
XF 498 CNS = system: XF 498 CNS
ACHN renal = system: ACHN renal
HOP-92 NSCLC = system: HOP-92 NSCLC
NCI-H226 lung = system: NCI-H226 lung
NCI-H460 lung = system: NCI-H460 lung
RXF 393 renal = system: RXF 393 renal
SR leukemia = system: SR leukemia
HOP-18 NSCLC = system: HOP-18 NSCLC

Measured: TGI

CCOc1ccccc1N=Nc1ccc2oc(=O)c(C(=O)Nc3cccc(C)c3)cc2c1
61.6 µM: LOX IMVI melanoma
62.4 µM: OVCAR-3 ovarian
57.1 µM: NCI-H522 lung
80.2 µM: MOLT-4 leukemia
94.7 µM: NCI-H23 lung
83.8 µM: CCRF-CEM leukemia
91.1 µM: SF-539 CNS
93.4 µM: M19-MEL melanoma
46.9 µM: SK-MEL-2 melanoma
63.3 µM: HL-60(TB) leukemia
91.3 µM: SNB-78 CNS
72.3 µM: SK-MEL-28 melanoma
95.2 µM: EKVX NSCLC
86 µM: OVCAR-8 ovarian
88 µM: K-562 leukemia
79.4 µM: OVCAR-4 ovarian
51.7 µM: HCT-116 colon
96.9 µM: HCC-2998 colon
59.5 µM: M14 melanoma
63.4 µM: DMS 114 small cell lung
81.2 µM: U251 CNS
99.4 µM: SNB-19 CNS
32.8 µM: SK-MEL-5 melanoma
71.8 µM: COLO 205 colon
not listed: ACHN renal | HOP-92 NSCLC | NCI-H226 lung | NCI-H460 lung | RXF 393 renal | SR leukemia | HOP-18 NSCLC
> 100 µM: all other assays above

NC(N)=N/N=C(\c1nc2ccc([N+](=O)[O-])cc2[nH]c1=O)C(O)c1ccc([N+](=O)[O-])cc1 (stereo not given)
79.8 µM: HCC-2998 colon
89.6 µM: NCI-H522 lung
75 µM: DMS 114 small cell lung
not listed: A498 renal | EKVX NSCLC | SK-MEL-2 melanoma | TK-10 renal | HOP-18 NSCLC
> 100 µM: all other assays above

Cc1cccc(NC(=O)/C(=N\NC(C)(C)C)C2NC(=S)NC2=O)c1C (stereo not given)
not listed: DMS 114 small cell lung | DMS 273 small cell lung | HT29 colon | LOX IMVI melanoma | NCI-H23 lung | NCI-H522 lung | SF-268 CNS | SK-MEL-28 melanoma | SN12C renal | SNB-75 CNS | XF 498 CNS | HOP-92 NSCLC | NCI-H226 lung | RXF 393 renal | SR leukemia | HOP-18 NSCLC
> 100 µM: all other assays above

CS/C(N)=N\NC(=O)CCC(=O)Nc1ccccc1C(F)(F)F
> 58.5 µM: KM20L2 colon
> 83.1 µM: SNB-75 CNS
not listed: HL-60(TB) leukemia | RXF-631 renal | XF 498 CNS
> 100 µM: all other assays above
